Source: patent US20210024520A1, “THERAPEUTIC AGENT FOR LCAT DEFICIENCY” (DAIICHI SANKYO COMPANY, LIMITED, priority 2018, published 2021)
Substitutions are numbered along the chain they refer to.

What was measured:
Type in all cases: biochemical
[1] = biological target: T1, mutant LCAT protein Y156N (Homo sapiens, UniProt P04180, Y180N); test: Measurement of LCAT activity using LCAT mutant protein Y156N (FLD), reconstituted HDL with [14C]-cholesterol; conditions: for Measured value of LCAT activity Mean ± standard error (n = 6): 37° C. 1 hour, radioactivity of cholesterol ester
T1 construct: made in house; host or cells: HEK293 cells (culture supernatant)
T1 sequence (P04180 25-440 Y180N): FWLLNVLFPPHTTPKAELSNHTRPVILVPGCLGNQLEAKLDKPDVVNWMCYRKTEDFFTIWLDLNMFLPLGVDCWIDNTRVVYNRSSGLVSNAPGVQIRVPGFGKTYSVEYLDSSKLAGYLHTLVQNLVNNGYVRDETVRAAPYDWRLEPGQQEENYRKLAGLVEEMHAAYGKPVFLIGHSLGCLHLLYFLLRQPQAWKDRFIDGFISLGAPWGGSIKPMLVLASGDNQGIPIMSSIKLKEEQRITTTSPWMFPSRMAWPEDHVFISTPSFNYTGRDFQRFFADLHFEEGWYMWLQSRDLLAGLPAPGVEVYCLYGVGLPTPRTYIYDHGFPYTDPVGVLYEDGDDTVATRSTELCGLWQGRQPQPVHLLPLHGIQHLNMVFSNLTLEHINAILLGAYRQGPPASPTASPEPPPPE
Experimental: (§1) Mutant LCAT proteins, reported on gene mutations among patients with familial LCAT deficiency (FLD) and patients with fish eye disease (FED), were expressed in HEK293 cells, and the mutant LCAT proteins were purified from the culture supernatant and used as enzyme sources. HDL was reconstituted with phosphatidylcholine, [14C]-labelled cholesterol, and apolipoprotein A-I and used as a reactive substrate. The test compound was prepared by being dissolved in dimethyl sulfoxide. To a mixture of 7 μL of the mutant LCAT protein solution (concentration 0.034 μg/μL), 1 μL each of PBS containing 10% bovine serum albumin or mercaptoethanol, and 40 μL of the above-mentioned reconstituted HDL was further added 1 μL of the test compound (final concentration 1 or 10 μM) to prepare 50 μL of a mixture in total. The mixture was incubated at 37° C. for 1 hour and subsequently a mixed solution of hexane and isopropanol (mixing ratio=3:2) was added to stop the reaction. Water was added and stirred, and subsequently the hexane layer was collected and concentrated to dryness. A chloroform solution (concentration 10 mg/mL) was added thereto, spotted on a silica gel thin-layer plate and developed with a mixed solution of hexane, diethyl ether and ethyl acetate (mixing ratio=85:15:2). Radioactivity of a portion corresponding to the cholesterol ester separated on each lane by the development on the silica gel thin-layer plate was measured using an imaging analyzer BAS-2500 (manufactured by FUJIFILM Corporation). Radioactivities with and without the test compound were compared to calculate the ratio of LCAT activity with the addition of the test compound to that without the addition of the test compound for each of the mutant proteins. Additionally, the presence and absence of significant differences in both cases were statistically evaluated using t-test or Dunnett multiple comparison test.

[2] = biological target: T2, mutant LCAT protein N228K (Homo sapiens, UniProt P04180, N252K); test: Measurement of LCAT activity using LCAT mutant protein N228K (FLD), reconstituted HDL with [14C]-cholesterol; conditions: for Measured value of LCAT activity Mean ± standard error (n = 6): 37° C. 1 hour, radioactivity of cholesterol ester
T2 construct: made in house; host or cells: HEK293 cells (culture supernatant)
T2 sequence (P04180 25-440 N252K): T1 sequence (P04180 25-440 Y180N) with N156Y, N228K
Experimental: as §1

[3] = biological target: T3, mutant LCAT protein P10Q (Homo sapiens, UniProt P04180, P34Q); test: Measurement of LCAT activity using LCAT mutant protein P10Q (FED), reconstituted HDL with [14C]-cholesterol; conditions: compound concentration 1 μM
T3 construct: made in house; host or cells: HEK293 cells (culture supernatant)
T3 sequence (P04180 25-440 P34Q): T1 sequence (P04180 25-440 Y180N) with P10Q, N156Y
Experimental: as §1, with “Water was added and stirred, and subsequently the hexane layer was collected and concentrated to dryness. A chloroform solution (concentration 10 mg/mL) was added thereto, spotted on a silica gel thin-layer plate and developed with a mixed solution of hexane, diethyl ether and ethyl acetate (mixing ratio=85:15:2).” left out, “Radioactivities with and without the test compound were compared to calculate the ratio of LCAT activity with the addition of the test compound to that without the addition of the test compound for each of the mutant proteins.” left out

[4] = biological target: T4, mutant LCAT protein T1231 (Homo sapiens, UniProt P04180, T147I); test: Measurement of LCAT activity using LCAT mutant protein T1231 (FED), reconstituted HDL with [14C]-cholesterol; conditions: compound concentration 1 μM
T4 construct: made in house; host or cells: HEK293 cells (culture supernatant)
T4 sequence (P04180 25-440 T147I): T1 sequence (P04180 25-440 Y180N) with T123I, N156Y
Experimental: as §1, with “Water was added and stirred, and subsequently the hexane layer was collected and concentrated to dryness. A chloroform solution (concentration 10 mg/mL) was added thereto, spotted on a silica gel thin-layer plate and developed with a mixed solution of hexane, diethyl ether and ethyl acetate (mixing ratio=85:15:2).” left out, “Radioactivities with and without the test compound were compared to calculate the ratio of LCAT activity with the addition of the test compound to that without the addition of the test compound for each of the mutant proteins.” left out

[5] = biological target: T5, mutant LCAT protein N131D (Homo sapiens, UniProt P04180, N155D); test: Measurement of LCAT activity using LCAT mutant protein N131D (FED), reconstituted HDL with [14C]-cholesterol; conditions: compound concentration 1 μM
T5 construct: made in house; host or cells: HEK293 cells (culture supernatant)
T5 sequence (P04180 25-440 N155D): T1 sequence (P04180 25-440 Y180N) with N131D, N156Y
Experimental: as §1, with “Water was added and stirred, and subsequently the hexane layer was collected and concentrated to dryness. A chloroform solution (concentration 10 mg/mL) was added thereto, spotted on a silica gel thin-layer plate and developed with a mixed solution of hexane, diethyl ether and ethyl acetate (mixing ratio=85:15:2).” left out, “Radioactivities with and without the test compound were compared to calculate the ratio of LCAT activity with the addition of the test compound to that without the addition of the test compound for each of the mutant proteins.” left out

[6] = 37° C. 1 hour, radioactivity of cholesterol ester

Compound: O=C1Nc2[nH]nc(C3CCN(c4cnc(C(F)(F)F)nc4)CC3)c2[C@@H](C(F)(F)F)[C@H]1O [test compound, (+)-Cis-5-hydroxy-4-(trifluoromethyl)-3-{1-[2-(trifluoromethyl)pyrimidin-5-yl]piperidin-4-yl}-1,4,5,7-tetrahydro-6H-pyrazolo[3,4-b]pyridin-6-one]
- LCAT activity ratio of case of compound addition to no-addition control ([1]; compound concentration 1 μM): 1.83
- Measured value of LCAT activity Mean ± standard error (n = 6) ([1]; compound concentration 1 μM): 447.36 ± 47.06
- LCAT activity ratio of case of compound addition to no-addition control ([1]; compound concentration 10 μM): 1.82
- Measured value of LCAT activity Mean ± standard error (n = 6) ([1]; compound concentration 10 μM): 443.20 ± 36.83
- LCAT activity ratio of case of compound addition to no-addition control ([2]; compound concentration 1 μM): 2.80
- Measured value of LCAT activity Mean ± standard error (n = 6) ([2]; compound concentration 1 μM): 634.17 ± 66.62
- LCAT activity ratio of case of compound addition to no-addition control ([2]; compound concentration 10 μM): 2.76
- Measured value of LCAT activity Mean ± standard error (n = 6) ([2]; compound concentration 10 μM): 625.22 ± 41.03
- LCAT activity ratio of case of compound addition to no-addition control [3]: 3.83
- Measured value of LCAT activity Mean ± standard error (n = 6) [3, 6]: 2908.25 ± 429.42
- LCAT activity ratio of case of compound addition to no-addition control [4]: 3.75
- Measured value of LCAT activity Mean ± standard error (n = 6) [4, 6]: 3263.11 ± 521.27
- LCAT activity ratio of case of compound addition to no-addition control [5]: 3.19
- Measured value of LCAT activity Mean ± standard error (n = 6) [5, 6]: 1308.38 ± 259.22
